In patent US20070128217A1 (priority 2003, published 2007):

Columns and labels:
[1] = tested on: antibodies in sera from SARS patients (sera 1a, 1b, 2, 6, 37, 62, London, SARS-yellow, SARS-green); assay type: binding, human; design: Binding of serum 6 to linear peptides of protein X1 of SARS-CoV Urbani / Binding of serum 37 to linear peptides of protein X1 of SARS-CoV Urbani / Binding of serum 6 to looped/cyclic peptide (PEPSCAN-ELISA) / Binding of serum 37 to looped/cyclic peptide (PEPSCAN-ELISA) / Binding of serum 37 to looped/cyclic peptides of protein X1 of SARS-CoV Urbani / Binding of serum 6 to linear peptides of protein X2 / Binding of serum 37 to linear peptides of protein X2 / Binding of serum 37 to looped/cyclic peptides of protein X2 of SARS-CoV Urbani / Binding of serum 6 to linear peptides of protein M of SARS-CoV Urbani / Binding of serum 37 to linear peptides of protein M of SARS-CoV Urbani / Binding of serum 6 to looped/cyclic peptides of protein M of SARS-CoV Urbani / Binding of serum 37 to looped/cyclic peptides of protein M of SARS-CoV Urbani / Binding of serum 6 to linear peptides of protein X3 of SARS-CoV Urbani / Binding of serum 37 to linear peptides of protein X3 of SARS-CoV Urbani / Binding of serum 37 to looped/cyclic peptides of protein X3 of SARS-CoV Urbani / Binding of serum 6 to linear peptides of protein X4 of SARS-CoV Urbani / Binding of serum 37 to linear peptides of protein X4 of SARS-CoV Urbani / Binding of serum 37 to looped/cyclic peptides of protein X4 of SARS-CoV Urbani / Binding of serum 6 to linear peptides of protein X5 of SARS-CoV Urbani / Binding of serum 37 to linear peptides of protein X5 of SARS-CoV Urbani / Binding of serum 37 to looped/cyclic peptides of protein X5 of SARS-CoV Urbani / Binding of serum 6 to linear peptides of protein N of SARS-CoV Urbani / Binding of serum 37 to linear peptides of protein N of SARS-CoV Urbani / Binding of serum 6 to linear peptide (PEPSCAN-ELISA) / Binding of serum 1a to looped/cyclic peptides of protein N of SARS-CoV Urbani / Binding of serum 1b to looped/cyclic peptides of protein N of SARS-CoV Urbani / Binding of serum 2 to looped/cyclic peptides of protein N of SARS-CoV Urbani / Binding of serum 6 to looped/cyclic peptides of protein N of SARS-CoV Urbani / Binding of serum 37 to looped/cyclic peptides of protein N of SARS-CoV Urbani / Binding of serum 62 to looped/cyclic peptides of protein N of SARS-CoV Urbani / Binding of serum London to looped/cyclic peptides of protein N of SARS-CoV Urbani / Binding of serum SARS-green to looped/cyclic peptides of protein N of SARS-CoV Urbani: unit not given here
[2] = tested on: control sera (pooled serum of ten healthy LUMC hospital workers; commercial negative donor pooled serum from the Dutch bloodbank); assay type: binding, human; design: Binding of Control serum LUMC to linear peptides / Binding of Control serum Blood-bank to linear peptides / Binding of Control serum LUMC to looped peptides / Binding of Control Serum Blood-Bank to Looped peptides / Binding of Control serum LUMC to linear peptides of the protein M of SARS-CoV Urbani / Binding of Control serum Blood-bank to linear peptides of the protein M of SARS-CoV Urbani / Binding of Control serum LUMC to looped peptides of the protein M of SARS-CoV Urbani / Binding of Control Serum Blood-Bank to Looped peptides of the protein M of SARS-CoV Urbani: unit not given here
[3] = tested on: rabbit serum obtained by immunizing a rabbit with the SARS-CoV strain Frankfurt 1; assay type: binding; design: Binding of a rabbit serum to linear peptides / Binding of a rabbit serum to looped peptides / Rabbit serum linear peptides / Rabbit serum looped peptides / Binding of a rabbit serum to linear peptides of protein N of SARS-CoV Urbani (Rabbit serum linear peptides) / Binding of a rabbit serum to looped/cyclic peptides of protein N of SARS-CoV Urbani (Rabbit serum looped peptides): unit not given here

Sequence | Binding of serum 1a to linear peptides of protein X4 of SARS-CoV Urbani [1] | Binding of serum 1a to looped/cyclic peptides of protein X4 of SARS-CoV Urbani [1] | Binding of serum 1b to linear peptides of protein X4 of SARS-CoV Urbani [1] | Binding of serum 1b to looped/cyclic peptides of protein X4 of SARS-CoV Urbani [1] | Binding of serum 2 to linear peptides of protein X4 of SARS-CoV Urbani [1] | Binding of serum 2 to looped/cyclic peptides of protein X4 of SARS-CoV Urbani [1] | Binding of serum 6 to linear peptides of protein X4 of SARS-CoV Urbani [1] | Binding of serum 6 to looped/cyclic peptides of protein X4 of SARS-CoV Urbani [1] | Binding of serum 37 to linear peptides of protein X4 of SARS-CoV Urbani [1] | Binding of serum 37 to looped/cyclic peptides of protein X4 of SARS-CoV Urbani [1] | Binding of serum 62 to linear peptides of protein X4 of SARS-CoV Urbani [1] | Binding of serum 62 to looped/cyclic peptides of protein X4 of SARS-CoV Urbani [1] | Binding of serum London to linear peptides of protein X4 of SARS-CoV Urbani [1] | Binding of serum London to looped/cyclic peptides of protein X4 of SARS-CoV Urbani [1] | Binding of serum SARS-green to linear peptides of protein X4 of SARS-CoV Urbani [1] | Binding of serum SARS-green to looped/cyclic peptides of protein X4 of SARS-CoV Urbani [1] | Binding of serum SARS-yellow to linear peptides of protein X4 of SARS-CoV Urbani [1] | Binding of serum SARS-yellow to looped/cyclic peptides of protein X4 of SARS-CoV Urbani [1] | Binding of Control Serum Blood-Bank to Looped peptides [2] | Binding of Control serum Blood-bank to linear peptides [2] | other results
MKIILFLTLIVFTSC | 0.6 | 0.6 | 0.5 | 0.0 | 0.4 | 0.5 | 0.4 | 0.5 | 0.7 | 0.6 | 0.7 | 0.5 | 0.7 | 0.2 | 0.4 | 0.3 | 0.5 | 0.6 | 0.6 | 0.6 | Binding of Control serum LUMC to linear peptides [2]: 0.5; Binding of Control serum LUMC to looped peptides [2]: 0.7; Rabbit serum linear peptides [3]: 0.7; Rabbit serum looped peptides [3]: 0.4
LIVFTSCELYHYQEC | 0.8 | 0.8 | 0.8 | 0.6 | 0.6 | 0.6 | 0.6 | 0.5 | 1.0 | 0.7 | 1.0 | 0.7 | 0.8 | 0.3 | 1.1 | 0.5 | 0.6 | 0.6 | 0.7 | 0.6 | Binding of Control serum LUMC to linear peptides [2]: 0.7; Binding of Control serum LUMC to looped peptides [2]: 0.8; Rabbit serum linear peptides [3]: 0.5; Rabbit serum looped peptides [3]: 0.5
